Laboratory results as given in US8759334B2, “Compounds useful for the treatment of metabolic and inflammatory diseases” (Galapagos NV, priority 2011, dated 2014).

Assays:
Type in all cases: cell-based
GPR43 [1] = molecular target: T1, GPR43 (Homo sapiens, UniProt O15552); experiment: Calcium mobilization assay with probenecid; details: GPR43 stably expressing cells; triggered with sodium acetate at EC80; 2.5 mM probenecid; read-out: GPR43 assay with probenicid IC50
T1 construct: expressed in transfected cells
T1 sequence (O15552 1-330): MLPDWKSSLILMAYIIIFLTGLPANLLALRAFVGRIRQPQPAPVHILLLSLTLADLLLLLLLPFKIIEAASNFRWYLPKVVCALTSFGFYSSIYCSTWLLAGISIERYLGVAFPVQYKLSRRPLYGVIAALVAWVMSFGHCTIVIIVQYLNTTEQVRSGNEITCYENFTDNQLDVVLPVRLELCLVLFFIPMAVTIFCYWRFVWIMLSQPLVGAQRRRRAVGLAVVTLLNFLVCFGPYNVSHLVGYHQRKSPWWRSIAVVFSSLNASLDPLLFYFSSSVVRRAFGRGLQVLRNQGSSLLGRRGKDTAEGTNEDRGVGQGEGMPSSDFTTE
In short: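 Cells stably expressing GPR43 plated overnight at 37 °C, then loaded 2 h with Calcium 4 dye plus 2.5 mM probenecid. […]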

GPR43 [2] = molecular target: T1, GPR43; experiment: Calcium mobilization assay without probenecid; details: GPR43 stably expressing cells, triggered with sodium acetate at EC80, read-out: GPR43 assay without probenicid IC50
In short: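 In GPR43-expressing cells loaded with a Calcium 4 dye, antagonism was tested by a 15 min compound preincubation at 37 °C, then a sodium acetate challenge at EC80, with Ca-flux read on injection. For agonism, Ca-flux was recorded directly on compound injection.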

human neutrophils = experiment: Neutrophil migration assay; details: neutrophils from human buffy coat, migration towards sodium acetate, read-out: human neutrophil migration inhibition EC50
Experimental: G Protein-Coupled Receptor 43 (GPR43) was described as an essential player in the process of neutrophil recruitment during intestinal inflammation.
The effect of agonists or antagonists for GPR43 can therefore be assayed in a neutrophil migration test. In the neutrophil migration assay, neutrophils, isolated from buffy coats from human volunteers, are treated with a compound for 30 minutes. Subsequently, the neutrophils are transferred to the upper wells of a Corning HTS transwell 96 permeable support system, of which the lower wells are filled with a sodium acetate solution.
The ACD buffer consists of 140 mM citric acid, 200 mM sodium citrate and 220 mM dextrose. The 6% dextran/0.9% NaCl solution consists of 15 g dextran T2000 and 2.25 g NaCl dissolved in 250 mL H2O.
A human buffy coat is diluted with an equal volume of ice cold DPBS. 20 mL of the diluted buffy coat is gently mixed with 4 mL of ACD buffer. Then, 12 mL of the 6% dextran/0.9% NaCl solution is added to the mixture and the samples are inverted gently up to 20 times. The total volume is transferred to a new recipient and incubated at room temperature for 1 h for complete separation of the two phases to occur. The yellowish supernatant is then transferred to a clean centrifugation tube and centrifuged for 12 minutes at 1300 rpm and 4° C. After centrifugation, the supernatant is discarded and the remaining cell pellet is rapidly resuspended in 12 mL of ice-cold H2O for red blood cell lysis to occur. After 20 seconds, 4 mL of ice-cold 0.6 M KCl is added. Samples are mixed carefully and centrifuged for 6 minutes at 1300 rpm, 4° C. The supernatant is discarded and the red blood cell lysis procedure is repeated one more time. […] After centrifugation for 12 min at 1300 rpm, 4° C., the supernatant is removed and the cell pellet, containing the neutrophils, is resuspended in 25 mL chemotaxis buffer.
A cell suspension of 8.9×10^6 cells per milliliter is prepared. 20 μL of compound solution in chemotaxis buffer is added to 180 μl cell suspension. The mixture is incubated at 37° C. for 30 minutes with Intermediate resuspension of the cells after 15 minutes. […] The receiver well of the transwell system is then filled with 200 μL chemotaxis buffer containing compound and chemotactic agent (sodium acetate). After incubation at 37° C. in 5% CO2 for 1 h, the upper plate of the transwell system is removed and the cell suspension in the receiver plate is transferred to a 96-well V-bottom plate. 50 μL of DPBS is added to the receiver plate to prevent remaining cells from drying out. The V-bottom plate is centrifuged for 6 minutes at 1500 rpm. The supernatant is removed and the cells are resuspended in 50 μL DPBS. The cells are then transferred back to the receiver plate of the transwell system. […] The plate is incubated for 10 minutes in the dark, while shaking. 170 μL of cell lysate is then transferred to a white 96-well plate and luminescence is measured. The detected luminescent signal is considered as linearly related to the number of migrated cells.

SMILES | IC50 (GPR43 [1]) [nM] | IC50 (GPR43 [2]) [nM] | EC50 (human neutrophils) [nM]
CC1(C(=O)N(CC(=O)O)Cc2ccc(Cl)cc2)CCN1C(=O)Cc1csc2ccccc12 (centres unmarked) [Compound 61, [[1-(2-Benzo[b]thiophen-3-yl-acetyl)-2-methyl-azetidine-2-carbonyl]-(4-chloro-benzyl)-amino]-acetic acid] | 0.01 to 100 | 0.01 to 100 | 0.01 to 100
CC1(C(=O)N(CCCC(=O)O)Cc2ccc(Cl)cc2)CCN1C(=O)Cc1csc2ccccc12 (centres unmarked) [Compound 89, 4-[[1-(2-Benzo[b]thiophen-3-yl-acetyl)-2-methyl-azetidine-2-carbonyl]-(4-chloro-benzyl)-amino]-butyric acid] | 0.01 to 100 | 0.01 to 100 | 0.01 to 100
CC1(C(=O)N(CCCC(=O)O)Cc2ccc(Cl)cc2)CCN1C(=O)Cc1coc2ccccc12 (centres unmarked) [Compound 103, 4-[[1-(2-Benzofuran-3-yl-acetyl)-2-methyl-azetidine-2-carbonyl]-(4-chloro-benzyl)-amino]-butyric acid] | 101 to 500 | – | 501 to 1000
Cc1cc(C)cc(CC(=O)N2CCC2(C)C(=O)N(CC(=O)O)Cc2ccc3cn[nH]c3c2)c1 (centres unmarked) [Compound 110, [{1-[2-(3,5-Dimethyl-phenyl)-acetyl]-2-methyl-azetidine-2-carbonyl}-(1H-indazol-6-ylmethyl)-amino]-acetic acid] | 101 to 500 | – | 101 to 500
Cc1cc(C)cc(CC(=O)N2CCC2(C)C(=O)N(CCCC(=O)O)Cc2ccc3cc[nH]c3c2)c1 (centres unmarked) [Compound 113, 4-[{1-[2-(3,5-Dimethyl-phenyl)-acetyl]-2-methyl-azetidine-2-carbonyl}-(1H-indol-6-ylmethyl)-amino]-butyric acid] | 0.01 to 100 | – | 0.01 to 100
Cc1cc(C)cc(CC(=O)N2CCC2(C)C(=O)N(CCCC(=O)N2CCOCC2)Cc2ccc(Cl)cc2)c1 (centres unmarked) [Compound 122, 1-[2-(3,5-Dimethyl-phenyl)-acetyl]-2-methyl-azetidine-2-carboxylic acid (4-chloro-benzyl)-(4-morpholin-4-yl-4-oxo-butyl)-amide] | 101 to 500 | – | 101 to 500
Cc1cc(C)cc(CC(=O)N2CCC2(C)C(=O)N(CCCC(=O)O)Cc2ccc3cn[nH]c3c2)c1 (centres unmarked) [Compound 123, 4-[{1-[2-(3,5-Dimethyl-phenyl)-acetyl]-2-methyl-azetidine-2-carbonyl}-(1H-indazol-6-ylmethyl)-amino]-butyric acid] | 101 to 500 | – | 0.01 to 100
CC1(C(=O)N(CCCC(=O)O)Cc2ccc3cn[nH]c3c2)CCN1C(=O)Cc1csc2ccccc12 (centres unmarked) [Compound 130, 4-[[1-(2-Benzo[b]thiophen-3-yl-acetyl)-2-methyl-azetidine-2-carbonyl]-(1H-indazol-6-ylmethyl)-amino]-butyric acid] | 0.01 to 100 | – | 101 to 500
CC1(C(=O)N(CCCC(=O)O)Cc2ccc3ccoc3c2)CCN1C(=O)Cc1csc2ccccc12 (centres unmarked) [Compound 131, 4-{[1-(2-Benzo[b]thiophen-3-yl-acetyl)-2-methyl-azetidine-2-carbonyl]-benzofuran-6-ylmethyl-amino}-butyric acid] | 0.01 to 100 | – | 101 to 500
Cc1cc(C)cc(CC(=O)N2CCC2(C)C(=O)N(Cc2ccc(Cl)cc2)Cc2cc(O)no2)c1 (centres unmarked) [Compound 132, 1-[2-(3,5-Dimethyl-phenyl)-acetyl]-2-methyl-azetidine-2-carboxylic acid (4-chloro-benzyl)-(3-hydroxy-isoxazol-5-ylmethyl)-amide] | 0.01 to 100 | – | 101 to 500
CC1(C(=O)N(CCCC(=O)O)Cc2ccc3cc[nH]c3c2)CCN1C(=O)Cc1coc2ccccc12 (centres unmarked) [Compound 137, 4-[[1-(2-Benzofuran-3-yl-acetyl)-2-methyl-azetidine-2-carbonyl]-(1H-indol-6-ylmethyl)-amino]-butyric acid] | 0.01 to 100 | – | 0.01 to 100
CC1(C(=O)N(CCCC(=O)O)Cc2ccc3cn[nH]c3c2)CCN1C(=O)c1csc2ccccc12 (centres unmarked) [Compound 157, 4-[[1-(Benzo[b]thiophene-3-carbonyl)-2-methyl-azetidine-2-carbonyl]-(1H-indazol-6-ylmethyl)-amino]-butyric acid] | 101 to 500 | – | 0.01 to 100
